Tests used:
[1] = system: Human myeloid leukemia cells (HL60); experiment: Evaluation of electron transfer with living cells (WST-8 formazan formation); type: cell-based; settings: HL60 25,000 to 0 cells/well; WST-8 500 μM, electron mediator 10 μM; 37° C. for 3 hours; FIG. 3A-3D
Method: Examples of the evaluation of the electron transfer between the electron mediators and the living cells are shown. For comparison, a similar experiment was carried out using 1-Methoxy PMS, a known electron mediator that carries out electron transfer with the living cells. Human myeloid leukemia cells (HL60) were seeded on a 96 well microplate at 25,000 to 0 cells/well, the measurement reagent was added at a final concentration shown below, after reacting at 37° C. for 3 hours and absorbance at 450 nm was measured. Final concentration of the measurement reagent: WST-8 (500 μM), the electron mediator (10 μM).

[2] = system: Chinese Hamster Ovarian (CHO) cells; experiment: Cytotoxicity assay using LDH leaked out of the dead cells as an index; type: cell-based; settings: comparison of the IC50 obtained with the electron mediator of the invention (FIG. 5A) and with the commercial LDH-Cytotoxicity Assay Kit (FIG. 5B); MMC 1 mM to 0.0001 mM, 20 hours
Method: The example of the cytotoxicity assay using the LDH leaked out of the dead cell as an index and the solutions of the chromogenic reagent prepared using the electron mediator according to the present invention is shown. As a model of the cytotoxicity assay, cytotoxicity of mitomycin C (MMC) against Chinese Hamster Ovarian (CHO) cells was assayed.
A suspension of the CHO cells at the concentration of 1.5×10^5 cells/mL was prepared using serum-containing medium and 100 μL of the suspension was seeded to each well of a 96 well microplate. After incubating at 37° C. for 4 hours in a CO2 incubator, 10 μL of MMC was added at final concentration of 1 mM to 0.0001 mM. The microplate was incubated at 37° C. for 20 hours in the CO2 incubator. […] After incubating at 37° C. for 20 minutes in a CO2 incubator, the absorbance at 450 nm was measured using a microplate reader.
A comparative experiment using a commercially available dead cell assay kit (BioPioneer Inc., LDH-Cytotoxicity Assay Kit) using LDH as an index. […] The measurement method of the absorbance was similar to that as mentioned above except that supernatant of the medium was taken and transferred to another plate so as not to be contaminated with the living cells upon conducting the chromogenic reaction.

SMILES	formation of the formazan attributed to the living cells (absorbance at 450 nm) [1]	50% Inhibition concentration (IC50) against the CHO cell [2]
COS(=O)(=O)[O-].COc1cccc2c1nc1ccccc1[n+]2C [1-Methoxy PMS, 1-methoxy phenazine methosulfate]	increasing of absorbance	
CO[C@@]12[C@H](COC(N)=O)C3=C(C(=O)C(C)=C(N)C3=O)N1C[C@@H]1N[C@@H]12 [mitomycin C]		No difference was observed

Reference: patent US10287619B2, “Measurement method for dehydrogenase and substrate concentration thereof, electron mediator, and measurement reagent for dehydrogenase including said electron mediator and for substrate thereof” (Dojindo Laboratories, priority 2014, dated 2019)
